Laboratory results reported in article PMC11765512 (International Journal of Molecular Sciences, 2025).

Experiments:
[1] = tested on: S-RBD-ACE2 interaction, AH109 (pAD-S-RBD+pBD-ACE2); format: cell-based, SARS-CoV-2 S-RBD, human ACE2 (in yeast)
[2] = molecular target: S-RBD-ACE2 interaction, AH109 (pAD-S-RBD+pBD-ACE2) (UniProt P0DTC2+Q9BYF1); format: cell-based, SARS-CoV-2 S-RBD, human ACE2 (in yeast)

Row | Structure (SMILES) | Difference of MICs among AH109 (pAD-S-RBD+pBD-ACE2) and AH109 (pAD-T+pBD-53) [1] [fold] | MIC against AH109 (pAD-S-RBD+pBD-ACE2) [2] [μg/mL]
1 | O=C(c1ccc(N2CCCCS2(=O)=O)cc1)N1CCN(C(=O)c2ccco2)CC1 [IMB-1C] | 2 | 
2 | Cc1ccc(N(Sc2ccc(Cl)cc2)C2C=CS(=O)(=O)C2)cc1 (stereo not drawn) [IMB-4A] | 2 | 
3 | CC(C)CCC[C@@H](C)[C@H]1CC[C@H]2[C@@H]3CC[C@H]4C[C@@H](O[C@@H]5O[C@H](COS(=O)(=O)O)[C@@H](O[C@H]6O[C@H](COS(=O)(=O)O)[C@@H](O[C@H]7O[C@H](COS(=O)(=O)O)[C@@H](O[C@H]8O[C@H](COS(=O)(=O)O)[C@@H](OS(=O)(=O)O)[C@H](OS(=O)(=O)O)[C@H]8OS(=O)(=O)O)[C@H](OS(=O)(=O)O)[C@H]7OS(=O)(=O)O)[C@H](OS(=O)(=O)O)[C@H]6OS(=O)(=O)O)[C@H](OS(=O)(=O)O)[C@H]5OS(=O)(=O)O)CC[C@]4(C)[C@H]3CC[C@]12C [Pixatimod, reference compound] |  | 1.56
